We go through 1 molecule from ChEMBL document CHEMBL4371042, “Molecular Mechanism of Inhibition of Acid Ceramidase by Carmofur” (J Med Chem, 2019).

For this assay, the target named is T1, Acid ceramidase (Homo sapiens, UniProt Q13510).
T1 sequence (Q13510 whole entry): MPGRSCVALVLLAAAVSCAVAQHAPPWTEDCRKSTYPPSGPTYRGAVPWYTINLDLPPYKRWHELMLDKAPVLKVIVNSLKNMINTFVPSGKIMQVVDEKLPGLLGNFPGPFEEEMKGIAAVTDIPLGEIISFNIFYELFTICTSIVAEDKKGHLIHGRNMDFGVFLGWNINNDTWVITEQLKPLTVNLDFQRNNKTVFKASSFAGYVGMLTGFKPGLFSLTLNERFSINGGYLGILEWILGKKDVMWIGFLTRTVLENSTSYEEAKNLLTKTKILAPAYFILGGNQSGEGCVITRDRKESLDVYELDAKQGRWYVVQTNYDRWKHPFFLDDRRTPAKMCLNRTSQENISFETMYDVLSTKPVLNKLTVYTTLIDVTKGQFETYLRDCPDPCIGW
Nature of the assay: Non-competitive inhibition of human acid ceramidase.

As to `O=C(NCCCCc1ccccc1)n1c(=O)oc2ccccc21`, the Ki (commonly a measure of affinity in units of concentration, obtained from inhibition or displacement) worked out at 64 nM.
